Records with an inconclusive call do not appear.

For this assay, the system named is CD8F1 mice, subcutaneous mammary adenocarcinoma, T/C%. Kind of assay: NCI In Vivo Anticancer Drug Screen. Data for tumor model Mammary Adenocarcinoma CD8F1 (subcutaneous) in CD8F1. The note with it: higher = larger tumour. On the procedure: The antitumor activity of compounds was measured in mice bearing transplantable tumors. Survival or tumor size were measured and the results are expressed as the measurement made in the treated group (T) divided by the measurement made in the vehicle treated control group (C). The tumor model used in this assay is Mammary Adenocarcinoma CD8F1 (subcutaneous) in CD8F1

Setting [1] is: endpoint: median tumor weight (est.), dose: 2.0 mg/kg/injection, schedule: Q07DX005 (ip), vehicle: suspension in saline.
Setting [2] is: endpoint: median tumor weight (est.), dose: 4.0 mg/kg/injection, schedule: Q07DX005 (ip), vehicle: suspension in saline.
[3] abbreviates: endpoint: median tumor weight (est.), dose: 12.5 mg/kg/injection, schedule: Q07DX005 (ip), vehicle: Klucel (hydroxypropylcellulose) (HPC).
Where [4] appears, read: endpoint: median tumor weight (est.), dose: 12.5 mg/kg/injection, schedule: Q07DX005 (ip), vehicle: saline.
[5] abbreviates: endpoint: median tumor weight (est.), dose: 25.0 mg/kg/injection, schedule: Q07DX005 (ip), vehicle: Klucel (hydroxypropylcellulose) (HPC).
Setting [6] is: endpoint: median tumor weight (est.), dose: 25.0 mg/kg/injection, schedule: Q07DX005 (ip), vehicle: saline.
Where [7] appears, read: endpoint: median tumor weight (est.), dose: 50.0 mg/kg/injection, schedule: Q07DX005 (ip), vehicle: Klucel (hydroxypropylcellulose) (HPC).
The mark [8] stands for this setting: endpoint: median tumor weight (est.), dose: 50.0 mg/kg/injection, schedule: Q07DX005 (ip), vehicle: saline.
Setting [9] is: endpoint: median tumor weight (est.), dose: 100.0 mg/kg/injection, schedule: Q07DX005 (ip), vehicle: saline.
Setting [10] is: endpoint: median tumor weight (est.), dose: 6.25 mg/kg/injection, schedule: Q07DX005 (ip), vehicle: Klucel (hydroxypropylcellulose) (HPC).
Setting [11] is: endpoint: median tumor weight (est.), dose: 100.0 mg/kg/injection, schedule: Q07DX005 (ip), vehicle: Klucel (hydroxypropylcellulose) (HPC).
[12] abbreviates: endpoint: median tumor weight (est.), dose: 200.0 mg/kg/injection, schedule: Q07DX005 (ip), vehicle: Klucel (hydroxypropylcellulose) (HPC).
Where [13] appears, read: endpoint: median tumor weight change, dose: 125.0 mg/kg/injection, schedule: Q01DX001 (ip), vehicle: saline with Tween-80.
The mark [14] stands for this setting: endpoint: median tumor weight change, dose: 250.0 mg/kg/injection, schedule: Q01DX001 (ip), vehicle: saline with Tween-80.
The mark [15] stands for this setting: endpoint: median tumor weight (est.), dose: 200.0 mg/kg/injection, schedule: Q07DX005 (ip), vehicle: saline.
Where [16] appears, read: endpoint: median tumor weight (est.), dose: 400.0 mg/kg/injection, schedule: Q07DX005 (ip), vehicle: saline.

`COc1ccc(CC2C(=O)NC(C)C(=O)N(C)C3C(=O)N(C)C(Cc4ccc(O)c(c4)Oc4ccc(cc4)C3O)C(=O)NC(C)C(=O)NC(C)C(=O)N2C)cc1` (configuration not stated): the T/C is, setting by setting: (endpoint: median tumor weight (est.), dose: 0.12 mg/kg/injection, schedule: Q07DX005 (ip), vehicle: suspension in saline) 116 % of control; (endpoint: median tumor weight (est.), dose: 0.25 mg/kg/injection, schedule: Q07DX005 (ip), vehicle: suspension in saline) 93 % of control; (endpoint: median tumor weight (est.), dose: 0.5 mg/kg/injection, schedule: Q07DX005 (ip), vehicle: suspension in saline) 95 % of control; (endpoint: median tumor weight (est.), dose: 1.0 mg/kg/injection, schedule: Q07DX005 (ip), vehicle: suspension in saline) 94 % of control; under setting [1], 99 % of control; under setting [2], 114 % of control.

As for `O=C(Nc1ccc(N=C=S)cc1Cl)c1cc(Cl)cc(Cl)c1O`, the T/C reads like this: under setting [3], 79 % of control; under setting [4], 118 % of control; under setting [5], 49 % of control; under setting [6], 96 % of control; under setting [7], 26 % of control; under setting [8], 111 % of control. In addition, under setting [9], the T/C is 78 % of control.

`C[n+]1c(-c2cccc(OCCOCCOc3cccc(-c4c5cc(N)ccc5c5ccc(N)cc5[n+]4C)c3)c2)c2cc(N)ccc2c2ccc(N)cc21`: the T/C runs as follows: (endpoint: median tumor weight change, dose: 5.0 mg/kg/injection, schedule: Q01DX001 (ip), vehicle: water) 63 % of control; (endpoint: median tumor weight change, dose: 10.0 mg/kg/injection, schedule: Q01DX001 (ip), vehicle: water) 72 % of control; (endpoint: median tumor weight change, dose: 40.0 mg/kg/injection, schedule: Q01DX001 (ip), vehicle: water) 60 % of control.

On to `CC1(C)CC(=O)C(CSC(=O)c2ccccc2)C(=O)C1`, for which the T/C under setting [10] was 182 % of control; the T/C (endpoint: median tumor weight (est.), dose: 6.25 mg/kg/injection, schedule: Q07DX005 (ip), vehicle: saline) was 55 % of control; the T/C under setting [4] was 102 % of control; the T/C under setting [6] is 158 % of control; the T/C under setting [7] is 39 % of control; the T/C under setting [8] is 73 % of control. Besides, the T/C under setting [11] is 187 % of control, the T/C under setting [9] was 64 % of control and the T/C under setting [12] is 57 % of control.

Regarding `COc1cc([C@@H]2c3cc4c(c(O)c3C[C@H]3COC(=O)[C@@H]32)OCO4)cc(OC)c1OC`, the T/C was 45 % of control (endpoint: median tumor weight (est.), dose: 2.0 mg/kg/injection, schedule: Q07DX005 (ip), vehicle: saline); 222 % of control (endpoint: median tumor weight (est.), dose: 4.0 mg/kg/injection, schedule: Q07DX005 (ip), vehicle: saline); 86 % of control (endpoint: median tumor weight (est.), dose: 8.0 mg/kg/injection, schedule: Q07DX005 (ip), vehicle: saline); 96 % of control (endpoint: median tumor weight (est.), dose: 16.0 mg/kg/injection, schedule: Q07DX005 (ip), vehicle: saline).

As for `CCCCCCOC(CN(C)C)C(Cl)(Cl)Cl` (configuration not stated), the T/C (endpoint: median tumor weight change, dose: 100.0 mg/kg/injection, schedule: Q01DX001 (ip), vehicle: saline with Tween-80) was 53 % of control; the T/C under setting [13] was 173 % of control; the T/C (endpoint: median tumor weight change, dose: 200.0 mg/kg/injection, schedule: Q01DX001 (ip), vehicle: saline with Tween-80) was 68 % of control; the T/C under setting [14] is 81 % of control; the T/C (endpoint: median tumor weight change, dose: 400.0 mg/kg/injection, schedule: Q01DX001 (ip), vehicle: saline with Tween-80) is 93 % of control; the T/C (endpoint: median tumor weight change, dose: 500.0 mg/kg/injection, schedule: Q01DX001 (ip), vehicle: saline with Tween-80) is 72 % of control. In addition, the T/C (endpoint: median tumor weight change, dose: 1000.0 mg/kg/injection, schedule: Q01DX001 (ip), vehicle: saline with Tween-80) was 79 % of control.

Take `Cc1ccccc1N(CC1CO1)CC1CO1` (configuration not stated): the T/C was 74 % of control under setting [8], 79 % of control under setting [9], 105 % of control under setting [15] and 63 % of control under setting [16].

Turning to `COC1C(/C=C/C(C)=O)OC2OC(C)(C)OC21` (configuration not stated), the T/C is, setting by setting: under setting [3], 165 % of control; under setting [4], 76 % of control; under setting [5], 99 % of control; under setting [6], 83 % of control; under setting [7], 91 % of control; under setting [8], 38 % of control. For the same compound, the T/C was 96 % of control under setting [11]; 101 % of control under setting [9]; 71 % of control under setting [12]; 101 % of control under setting [15]; 84 % of control under setting [16].

For the compound `C1CCC2[N-]CC3CCCCC3[N-]CC3CCCCC3[N-]CC3CCCCC3[N-]CC2C1.[Cu]` (configuration not stated), the T/C is 71 % of control under setting [10], 99 % of control under setting [3] and 80 % of control under setting [5].

`Cc1ccc(S(=O)(=O)NC(=S)S)cc1`: the T/C by setting is: (endpoint: median tumor weight (est.), dose: 12.5 mg/kg/injection, schedule: Q07DX005 (ip), vehicle: saline with Tween-80) 110 % of control; (endpoint: median tumor weight (est.), dose: 25.0 mg/kg/injection, schedule: Q07DX005 (ip), vehicle: saline with Tween-80) 94 % of control; (endpoint: median tumor weight (est.), dose: 100.0 mg/kg/injection, schedule: Q07DX005 (ip), vehicle: saline with Tween-80) 91 % of control; (endpoint: median tumor weight (est.), dose: 200.0 mg/kg/injection, schedule: Q07DX005 (ip), vehicle: saline with Tween-80) 95 % of control; (endpoint: median tumor weight (est.), dose: 400.0 mg/kg/injection, schedule: Q07DX005 (ip), vehicle: saline with Tween-80) 106 % of control.

For the compound `CCNC(C)(C)C(SSS)c1ccco1` (configuration not stated), the T/C is, setting by setting: (endpoint: median tumor weight change, dose: 31.25 mg/kg/injection, schedule: Q01DX001 (ip), vehicle: saline with Tween-80) 97 % of control; (endpoint: median tumor weight change, dose: 62.5 mg/kg/injection, schedule: Q01DX001 (ip), vehicle: saline with Tween-80) 87 % of control; under setting [13], 65 % of control; under setting [14], 59 % of control.

Consider `COC12C(COC(N)=O)C3=C(C(=O)C(C)=C(N)C3=O)N1CC1C2N1C` (configuration not stated), for which the T/C reads like this: under setting [1], 53 % of control; under setting [2], 73 % of control; (endpoint: median tumor weight (est.), dose: 8.0 mg/kg/injection, schedule: Q07DX005 (ip), vehicle: suspension in saline) 3 % of control.

Take `NC(C/[N+]([O-])=N/O)C(=O)O` (configuration not stated): the T/C reads like this: (endpoint: mean tumor weight, dose: 32.0 mg/kg/injection, schedule: Q07DX006 (ip), vehicle: saline) 47 % of control; (endpoint: mean tumor weight, dose: 64.0 mg/kg/injection, schedule: Q07DX006 (ip), vehicle: saline) 4 % of control; (endpoint: mean tumor weight, dose: 128.0 mg/kg/injection, schedule: Q07DX006 (ip), vehicle: saline) 32 % of control; (endpoint: mean tumor weight, dose: 256.0 mg/kg/injection, schedule: Q07DX006 (ip), vehicle: saline) 117 % of control; (endpoint: mean tumor weight, dose: 512.0 mg/kg/injection, schedule: Q07DX006 (ip), vehicle: saline) 7 % of control; (endpoint: mean tumor weight, dose: 1024.0 mg/kg/injection, schedule: Q07DX006 (ip), vehicle: saline) 8 % of control. Moreover, the T/C was 63 % of control under setting [6]; 68 % of control under setting [8]; 85 % of control (endpoint: median tumor weight (est.), dose: 64.0 mg/kg/injection, schedule: Q01DX005 (ip), vehicle: saline); 57 % of control under setting [9]; 92 % of control (endpoint: median tumor weight (est.), dose: 128.0 mg/kg/injection, schedule: Q01DX005 (ip), vehicle: saline); 56 % of control under setting [15]. Also, the T/C reads like this: (endpoint: median tumor weight (est.), dose: 256.0 mg/kg/injection, schedule: Q01DX005 (ip), vehicle: saline) 51 % of control; under setting [16], 49 % of control; (endpoint: median tumor weight (est.), dose: 512.0 mg/kg/injection, schedule: Q01DX005 (ip), vehicle: saline) 31 % of control; (endpoint: median tumor weight (est.), dose: 1024.0 mg/kg/injection, schedule: Q01DX005 (ip), vehicle: saline) 63 % of control.

Source of the values: PubChem BioAssay AID220 (DTP/NCI, 2004).
